Measured values as given in the Deep4Chem optical property database.

Assay: solvent given as SMILES

With `c1ccc2c(c1)-c1c(cc3ccc4cccc5ccc1c3c45)C21c2cc(-c3ccc4ccc5cccc6ccc3c4c56)ccc2-c2ccc(-c3ccc4ccc5cccc6ccc3c4c56)cc21` as the molecule, how does the emission maximum (in ClC(Cl)Cl) read?
Its emission maximum is 424 nm.

With `Cc1cccc(C)c1N1C(c2ccccc2)=Cc2ccc3ccccc3[n+]2[B-]1(F)F` as the molecule, how does the emission maximum (in ClCCl) read?
Its emission maximum is 468 nm.

With `CCOC(=O)c1cc(C(=O)OCC)c2cc(N(C)C)ccc2n1` as the molecule, how does the emission maximum (in CCO) read?
The emission maximum was 564 nm.

Which emission maximum (in C1CCOC1) does the source give for `C1=C2c3cc4ccccc4cc3C3=[N+]2[B-]2(Oc4ccccc43)Oc3ccccc3-c3c4cc5ccccc5cc4c1n32` (centres undefined) here?
The emission maximum was 832 nm.

For `c1ccc2c3c(ccc2c1)-c1cccc2cc4ccccc4c-3c12`, which emission maximum (in CCCCCCC) is on record?
Its emission maximum is 610 nm.

Which emission maximum (in C1CCOC1) does the source give for `C[Si](C)(C)c1ccc(-c2ccc(-c3ccc(-c4ccc(-c5ccc([Si](C)(C)C)cc5)s4)c4nsnc34)s2)cc1` here?
Its emission maximum is 620 nm.

With `CC(C)c1ccc(/C=C/c2nc3ccc(N(C)C)cc3s2)cc1` as the molecule, how does the emission maximum (in C1CCCCC1) read?
Its emission maximum is 454 nm.

And the emission maximum (in CC#N)?
The emission maximum was 517 nm.

What does the source list for `CC(C)(C)c1ccc2c(c1)c1cc(C(C)(C)C)ccc1n2-c1ccc(-c2ccc3c(c2)C2(c4cc(-c5ccc(-n6c7ccc(C(C)(C)C)cc7c7cc(C(C)(C)C)ccc76)cc5)ccc4-3)c3ccccc3S(=O)(=O)c3ccccc32)cc1`?
emission maximum (in ClCCl): 449 nm; emission maximum (in c1cc(-n2c3ccccc3c3ccccc32)cc(-n2c3ccccc3c3ccccc32)c1): 434 nm

With `O=c1c2ccccc2nc2ccccn12` as the molecule, how does the emission maximum (in ClCCl) read?
Its emission maximum is 442 nm.

For `c1ccc2c(c1)Sc1ccccc1S2`, which emission maximum (in CC1CCCCC1) is on record?
The emission maximum was 431 nm.

For `CCCCCCn1c2ccccc2c2cc(-c3ccc(-c4cc(-c5ccccn5)nc(-c5ccccn5)c4)cc3)ccc21`, which emission maximum (in ClCCl) is on record?
The emission maximum was 447 nm.

Which emission maximum (in C1CCCCC1) does the source give for `CN(C)c1ccc(/C=C/c2nc3ccc(N(C)C)cc3oc2=O)cc1` here?
Its emission maximum is 521 nm.

And the emission maximum (in C1COCCO1)?
The emission maximum was 581 nm.

What about the emission maximum (in CC#N) of the same molecule?
The emission maximum was 650 nm.

And the emission maximum (in CC(C)=O)?
Its emission maximum is 626 nm.

And the emission maximum (in CC(O)CO)?
The emission maximum was 649.5 nm.

What about the emission maximum (in CCCCCCC) of the same molecule?
The emission maximum was 519 nm.

And the emission maximum (in CCO)?
The emission maximum was 666 nm.

What about the emission maximum (in CCOC(C)=O) of the same molecule?
The emission maximum was 587 nm.

And the emission maximum (in CN(C)C=O)?
The emission maximum was 650 nm.

What about the emission maximum (in CS(C)=O) of the same molecule?
Its emission maximum is 666 nm.

What about the emission maximum (in Cc1ccccc1) of the same molecule?
The emission maximum was 567 nm.

What about the emission maximum (in ClC(Cl)Cl) of the same molecule?
The emission maximum was 627 nm.

What about the emission maximum (in ClCCl) of the same molecule?
Its emission maximum is 619 nm.

What about the emission maximum (in OCC(O)CO) of the same molecule?
Its emission maximum is 659 nm.

With `c1ccc2c(c1)-c1ccccc1[Si]21c2ccccc2-c2cc3c(cc21)-c1ccccc1[Si]31c2ccccc2-c2ccccc21` as the molecule, how does the emission maximum (in ClCCl) read?
Its emission maximum is 408 nm.

With `O=P1(c2ccccc2)c2ccc(N3c4ccccc4Sc4ccccc43)cc2-c2cc(N3c4ccccc4Sc4ccccc43)ccc21` as the molecule, how does the emission maximum (in Cc1ccccc1) read?
The emission maximum was 559 nm.

What about the emission maximum (in c1ccc2c(c1)c1ccccc1n2-c1ccc(-c2ccc(-n3c4ccccc4c4ccccc43)cc2)cc1) of the same molecule?
The emission maximum was 555 nm.

For `COc1ccc2c(c1)c1cc(OC)ccc1n2-c1cc(Cl)c([C](c2c(Cl)cc(Cl)cc2Cl)c2c(Cl)cc(Cl)cc2Cl)c(Cl)c1`, which emission maximum (in C1CCCCC1) is on record?
The emission maximum was 728 nm.

For `C(#Cc1ccccc1)C(C#Cc1ccccc1)=Cc1ccc(C=C(C#Cc2ccccc2)C#Cc2ccccc2)s1`, which emission maximum (in ClC(Cl)Cl) is on record?
The emission maximum was 528 nm.

For `C[Si]1(C)O[Si](C)(C)c2cc3cc4cc5c(cc4cc3cc21)C(=O)c1cc2cc3cc4c(cc3cc2cc1C5=O)[Si](C)(C)O[Si]4(C)C`, which emission maximum (in ClC(Cl)Cl) is on record?
Its emission maximum is 518 nm.

For `Cc1nnc(-c2cc(-n3c4ccccc4c4ccccc43)c(-n3c4ccccc4c4ccccc43)cc2-c2nnc(C)o2)o1`, which emission maximum (in CC#N) is on record?
The emission maximum was 504.62 nm.

What about the emission maximum (in Cc1ccccc1) of the same molecule?
The emission maximum was 453 nm.

What about the emission maximum (in ClCCl) of the same molecule?
The emission maximum was 485.51 nm.

Which emission maximum (in Cc1ccccc1) does the source give for `COc1ccc(C2=C(c3ccc(OC)cc3)C(c3ccccc3)=[N+]3C2=Nc2c(-c4ccc(OC)cc4)c(-c4ccc(OC)cc4)c(-c4ccccc4)n2[B-]3(F)F)cc1` here?
Its emission maximum is 750 nm.

Which emission maximum (in C1CCOC1) does the source give for `F[B-]1(F)n2c(c(-c3ccccc3)c(-c3ccccc3)c2-c2ccccc2)C(c2ccccc2)=C2C(c3ccccc3)=C(c3ccccc3)C(c3ccccc3)=[N+]21` here?
The emission maximum was 613 nm.

What does the source list for `CC[N+](CC)=c1ccc2c(C(F)(F)F)c3c(oc-2c1)-c1ccc(N(C)C)cc1CC3`?
emission maximum (in CCO): 425 nm; emission maximum (in ClCCl): 713 nm; emission maximum (in O): 716 nm

With `CCCCCn1c2ccccc2c(=O)c2ccccc21` as the molecule, how does the emission maximum (in CS(C)=O) read?
Its emission maximum is 414 nm.

And the emission maximum (in O)?
Its emission maximum is 428 nm.

With `c1ccc(-c2nc(-c3ccc(N4c5ccccc5C(c5ccccc5)(c5ccccc5)c5ccccc54)cc3)cc(-c3ccc(N4c5ccccc5C(c5ccccc5)(c5ccccc5)c5ccccc54)cc3)n2)cc1` as the molecule, how does the emission maximum (in Cc1ccccc1) read?
Its emission maximum is 456 nm.

And the emission maximum (in O=P(c1ccccc1)(c1ccccc1)c1ccc2oc3ccc(P(=O)(c4ccccc4)c4ccccc4)cc3c2c1)?
The emission maximum was 462 nm.

For `Cc1ccc(-n2c3ccccc3c3cc(C=C(C#N)C#N)ccc32)cc1`, which emission maximum (in C1CCOC1) is on record?
Its emission maximum is 454 nm.

And the emission maximum (in CC#N)?
Its emission maximum is 516 nm.

And the emission maximum (in CC(C)=O)?
Its emission maximum is 502 nm.

And the emission maximum (in CCOC(C)=O)?
Its emission maximum is 474 nm.

What about the emission maximum (in CO) of the same molecule?
The emission maximum was 519 nm.

What about the emission maximum (in CS(C)=O) of the same molecule?
Its emission maximum is 524 nm.

And the emission maximum (in Cc1ccccc1)?
Its emission maximum is 454 nm.

What about the emission maximum (in ClC(Cl)Cl) of the same molecule?
Its emission maximum is 478 nm.

What does the source list for `COC(=O)c1ccc(C#Cc2ccc(N(C)C)cc2)cc1`?
emission maximum (in C1CCCCC1): 426 nm; emission maximum (in C1CCOC1): 482 nm; emission maximum (in C1COCCO1): 450 nm; emission maximum (in CC1CCCO1): 464.51 nm; emission maximum (in CC#N): 544.01 nm; emission maximum (in CC(C)=O): 426.99 nm; emission maximum (in CC(C)CC(C)(C)C): 377.5 nm; emission maximum (in CC(C)O): 441.5 nm; emission maximum (in CCCCCCCCCCCCCCCC): 370 nm; emission maximum (in CCCCCCCCCCCCCCCCCl): 382.5 nm; emission maximum (in CCOC(C)=O): 470.5 nm; emission maximum (in CCOCC): 458.51 nm; emission maximum (in CN(C)C=O): 524 nm; emission maximum (in CO): 465.01 nm; emission maximum (in CS(C)=O): 548.49 nm; emission maximum (in Cc1ccccc1): 381 nm
